Measurements taken from article PMC5368910 (BMC Pharmacology & Toxicology, 2017).
Like-named read-outs stand apart in the source and are kept apart here.

Assays:
[1] = MAD, 500 mg BID oral, plasma, LC/MS/MS, LLOQ 1 ng/mL, median (range)
Protocol: (§1) Subjects were dosed BID, once in the morning and once in the evening, for 14 consecutive days, with at least 8 ounces of water and approximately 1 h after breakfast and 1 h after dinner.
(§2) During the MAD study, serial plasma samples for PK analysis were collected predose and at 30 min, 3, 6, and 9 h after the morning dose on days 1 and 14, and before the morning dose on days 4, 7, 10, and 12 (trough levels). […] Samples were analyzed using the same bioanalytical LC/MS/MS method as in the SAD study (LLOQ of 1 ng/mL).
(§3) Plasma PK parameters were calculated using standard noncompartmental methods in a validated version of WinNonlin (version 5.2, Pharsight, Mountain View, CA, USA). All concentrations that were below the LLOQ prior to the first detectable concentration were assigned a value of 0. All concentrations that were below the LLOQ after the first quantifiable concentration were designated as missing and replaced with a period. Actual sample collection times were used in the analysis of the concentration versus time profiles for individual subjects. Integration of plasma concentrations versus time was conducted using the linear-up, log-down function in WinNonlin. The following parameters were determined: maximum plasma concentration (Cmax), time of Cmax (Tmax), area under the concentration-time curve (AUC) from 0 to last measurable plasma concentration (AUC0-t), AUC from 0 to infinity (AUC0-∞), percent of dose excreted in the urine, and terminal exponential half-life (t½).

[2] = clinical; conditions: both, human, plasma, po
Protocol: (§4) Randomization was assigned by blinded study personnel and stratified by gender to achieve an equal number of male and female subjects in each cohort. Subjects aged 18–49 years and 50–75 years were equally distributed in each dosing cohort.
(§5) Any subject receiving at least one full dose of the study drug was included in the PK analysis population. PK analysis during the SAD study was conducted on serial plasma samples collected predose and at 30 min, 1, 2, 4, 6, 8, 12, 24, 48, and 72 h after dosing, and analyzed using a validated liquid chromatography-tandem mass spectrometry (LC/MS/MS) method, with a lower limit of quantification (LLOQ) of 1 ng/mL. […] The samples were analyzed using an API 5000 triple quadrupole mass spectrometer (Applied Biosystems/ScieEx, Concord, ON, Canada) using electrospray ionization in positive ion mode. Analyst^TM software (version 1.4.2., Applied Biosystems, Foster City, CA, USA) was used for data acquisition. In total, 8 calibration solutions with a range of 1.00 ng/mL to 1000 ng/mL were used as internal standards in addition to a blank. Inter-assay bias was determined to be –2.6 to 2.5% with inter-assay precision of 3.9 to 9.4%.
as §3

[3] = dogs; ref Yin N et al., ICAAC 2010, unpublished data; cited from earlier work
[4] = after the first single oral dose, both SAD and MAD groups
Protocol: as §4, §5, §3

[5] = test system: C. difficile; set-up: method as in PMID 22183166, PMID 22391542; conditions: cited from earlier work
[6] = SAD, single oral dose, urine over a 7-day period, LC/MS/MS
Protocol: Any subject receiving at least one full dose of the study drug was included in the PK analysis population. PK analysis during the SAD study was conducted on serial plasma samples collected predose and at 30 min, 1, 2, 4, 6, 8, 12, 24, 48, and 72 h after dosing, and analyzed using a validated liquid chromatography-tandem mass spectrometry (LC/MS/MS) method, with a lower limit of quantification (LLOQ) of 1 ng/mL. Urine and stool samples were also collected during this period and analyzed using LC/MS/MS. Urine and feces were collected for 7 days after dose administration. The samples were analyzed using an API 5000 triple quadrupole mass spectrometer (Applied Biosystems/ScieEx, Concord, ON, Canada) using electrospray ionization in positive ion mode. […]
Plasma PK parameters were calculated using standard noncompartmental methods in a validated version of WinNonlin (version 5.2, Pharsight, Mountain View, CA, USA). […] All concentrations that were below the LLOQ after the first quantifiable concentration were designated as missing and replaced with a period. […] The following parameters were determined: maximum plasma concentration (Cmax), time of Cmax (Tmax), area under the concentration-time curve (AUC) from 0 to last measurable plasma concentration (AUC0-t), AUC from 0 to infinity (AUC0-∞), percent of dose excreted in the urine, and terminal exponential half-life (t½).

[7] = test system: initial and relapsing hamster CDAD; set-up: method as in PMID 22802252; conditions: given orally; potency similar to vancomycin; cited from earlier work
[8] = rats; ref Yin N et al., ICAAC 2010, unpublished data; cited from earlier work
[9] = not given; remark: listed apart in the source
[10] = clinical; conditions: both, human, plasma, po, MAD, median (range); for AUC(0-t): AUC0–t; for Tmax: LLOQ 1 ng/mL
Protocol: as §1, §2, §3

[11] = SAD, of the 32 subjects who received surotomycin
[12] = MAD, subjects who received surotomycin (n = 24)
[13] = 250 mg, 250 mg BID oral, day 1, LC/MS/MS, cohort n = 8
[14] = 1000 mg, 1000 mg BID oral, day 1, LC/MS/MS, cohort n = 8
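For Back pain (TEAE) in this document: human subjects dosed twice daily for 14 days, safety tracked through day 21 follow-up via reported adverse events, examinations, vital signs, ECG and laboratory tests.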
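For Diarrhea (TEAE) in this document: single ascending dose cohorts, safety followed through day 8 via observed or reported adverse events, physical exam, vital signs, ECG and laboratory tests, all dosed subjects analysed.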
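For General disorders and administration- site conditions (TEAE) in this document: human subjects dosed twice daily for 14 days, safety tracked through day 21 follow-up via reported adverse events, examinations, vital signs, ECG and laboratory tests.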
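For Headache (TEAE) in this document: human subjects dosed twice daily for 14 days, safety tracked through day 21 follow-up via reported adverse events, examinations, vital signs, ECG and laboratory tests.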
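For Investigations (TEAE) in this document: single ascending dose cohorts, safety followed through day 8 via observed or reported adverse events, physical exam, vital signs, ECG and laboratory tests, all dosed subjects analysed.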
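For Musculoskeletal and connective tissue disorders (TEAE) in this document: human subjects dosed twice daily for 14 days, safety tracked through day 21 follow-up via reported adverse events, examinations, vital signs, ECG and laboratory tests.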
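For Transaminase increased (TEAE) in this document: single ascending dose cohorts, safety followed through day 8 via observed or reported adverse events, physical exam, vital signs, ECG and laboratory tests, all dosed subjects analysed.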
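For serious AEs in this document: single ascending dose cohorts, safety followed through day 8 via observed or reported adverse events, physical exam, vital signs, ECG and laboratory tests, all dosed subjects analysed.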

CCCCCc1ccc(/C(C)=C/C(=O)N[C@@H](Cc2c[nH]c3ccccc23)C(=O)N[C@H](CC(N)=O)C(=O)N[C@@H](CC(=O)O)C(=O)N[C@@H]2C(=O)NCC(=O)N[C@@H](CCCN)C(=O)N[C@@H](CC(=O)O)C(=O)N[C@H](C)C(=O)N[C@@H](CC(=O)O)C(=O)NCC(=O)N[C@H](CO)C(=O)N[C@@H]([C@H](C)CC(=O)O)C(=O)N[C@@H](CC(=O)c3ccccc3N)C(=O)O[C@@H]2C)cc1 [surotomycin]
Tmax ([1]; day 1, cohort n = 8): 6.0 (6.0–9.0) h | Tmax ([1]; day 14 morning dose): 6.0 (0.0–9.0) h | AUC(0-inf) ([2]; 500 mg): 317 ng·h/mL | AUC(0-t) ([2]; 500 mg): 260 ng·h/mL | Cmax ([2]; 500 mg): 10.5 ng/mL | Tmax ([2]; 500 mg): 6 h | half-life ([2]; 500 mg): 18.3 h | AUC(0-inf) ([2]; 1000 mg): 702 ng·h/mL | AUC(0-t) ([2]; 1000 mg): 664 ng·h/mL | Cmax ([2]; 1000 mg): 21.5 ng/mL | Tmax ([2]; 1000 mg): 10 h | half-life ([2]; 1000 mg): 21.1 h | AUC(0-inf) ([2]; 2000 mg): 2080 ng·h/mL | AUC(0-t) ([2]; 2000 mg): 1860 ng·h/mL | Cmax ([2]; 2000 mg): 66.6 ng/mL | Tmax ([2]; 2000 mg): 8 h | half-life ([2]; 2000 mg): 16.3 h | AUC(0-inf) ([2]; 4000 mg): 2570 ng·h/mL | AUC(0-t) ([2]; 4000 mg): 2480 ng·h/mL | Cmax ([2]; 4000 mg): 86.7 ng/mL | Tmax ([2]; 4000 mg): 12 h | half-life ([2]; 4000 mg): 14.8 h | intestinal absorption [3]: < 1% | time of peak median plasma concentration after the first dose [4]: 6 to 12 h | in vitro potency relative to vancomycin ([5]; against C. difficile, by MIC90): fourfold greater | minimum inhibitory concentration at which 90% of the isolates were inhibited [MIC90] ([5]; in vitro, C. difficile isolates): 0.5 µg/mL | median cumulative amount of the administered dose recovered in the urine [6]: < 0.01% | At least one TEAE (SAD 500 mg (n = 8)): 3 (37.5) n (%) | Diarrhea (TEAE) (SAD 500 mg (n = 8)): 1 (12.5) n (%) | Gastrointestinal disorders (TEAE) (SAD 500 mg (n = 8)): 2 (25.0) n (%) | Infections and infestations (TEAE) (SAD 500 mg (n = 8)): 0 n (%) | Investigations (TEAE) (SAD 500 mg (n = 8)): 0 n (%) | Transaminase increased (TEAE) (SAD 500 mg (n = 8)): 0 n (%) | At least one TEAE (SAD 1000 mg (n = 8)): 0 n (%) | Diarrhea (TEAE) (SAD 1000 mg (n = 8)): 0 n (%) | Gastrointestinal disorders (TEAE) (SAD 1000 mg (n = 8)): 0 n (%) | Infections and infestations (TEAE) (SAD 1000 mg (n = 8)): 0 n (%) | Investigations (TEAE) (SAD 1000 mg (n = 8)): 0 n (%) | Transaminase increased (TEAE) (SAD 1000 mg (n = 8)): 0 n (%) | At least one TEAE (SAD 2000 mg (n = 8)): 5 (62.5) n (%) | Diarrhea (TEAE) (SAD 2000 mg (n = 8)): 3 (37.5) n (%) | Gastrointestinal disorders (TEAE) (SAD 2000 mg (n = 8)): 3 (37.5) n (%) | Infections and infestations (TEAE) (SAD 2000 mg (n = 8)): 0 n (%) | Investigations (TEAE) (SAD 2000 mg (n = 8)): 1 (12.5) n (%) | Transaminase increased (TEAE) (SAD 2000 mg (n = 8)): 1 (12.5) n (%) | At least one TEAE (SAD 4000 mg (n = 8)): 3 (37.5) n (%) | Diarrhea (TEAE) (SAD 4000 mg (n = 8)): 1 (12.5) n (%) | Gastrointestinal disorders (TEAE) (SAD 4000 mg (n = 8)): 1 (12.5) n (%) | Infections and infestations (TEAE) (SAD 4000 mg (n = 8)): 2 (25.0) n (%) | Investigations (TEAE) (SAD 4000 mg (n = 8)): 1 (12.5) n (%) | Transaminase increased (TEAE) (SAD 4000 mg (n = 8)): 1 (12.5) n (%) | serious AEs (SAD group, none discontinued due to AEs): No serious AEs | treatment-related diarrhea (SAD, all surotomycin subjects (n = 32)): 5 (15.6%) n (%) | increased transaminases [11]: 2 (6.3%) n (%) | subjects with AEs assessed as treatment-related [11]: 9 (28.1%) n (%) | tolerability (SAD, single oral doses 500, 1000, 2000 or 4000 mg): well tolerated | severity of reported AEs (SAD, single oral doses 500-4000 mg): mild to moderate | efficacy against initial and relapsing hamster CDAD [7]: highly effective | bioavailability after oral administration [8]: very low | intestinal absorption [8]: < 1% | At least one TEAE ([9]; MAD 250 mg BID (n = 8)): 4 (50.0) n (%) | Back pain (TEAE) ([9]; MAD 250 mg BID (n = 8)): 1 (12.5) n (%) | Gastrointestinal disorders (TEAE) ([9]; MAD 250 mg BID (n = 8)): 2 (25.0) n (%) | General disorders and administration- site conditions (TEAE) ([9]; MAD 250 mg BID (n = 8)): 0 n (%) | Headache (TEAE) ([9]; MAD 250 mg BID (n = 8)): 1 (12.5) n (%) | Infections and infestations (TEAE) ([9]; MAD 250 mg BID (n = 8)): 0 n (%) | Musculoskeletal and connective tissue disorders (TEAE) ([9]; MAD 250 mg BID (n = 8)): 2 (25.0) n (%) | Nervous system disorders (TEAE) ([9]; MAD 250 mg BID (n = 8)): 2 (25.0) n (%) | Oropharyngeal pain (TEAE) ([9]; MAD 250 mg BID (n = 8)): 0 n (%) | Pruritus (TEAE) ([9]; MAD 250 mg BID (n = 8)): 0 n (%) | Respiratory, thoracic, and mediastinal disorders (TEAE) ([9]; MAD 250 mg BID (n = 8)): 0 n (%) | Skin and subcutaneous tissue disorders (TEAE) ([9]; MAD 250 mg BID (n = 8)): 0 n (%) | At least one TEAE ([9]; MAD 500 mg BID (n = 8)): 6 (75.0) n (%) | Back pain (TEAE) ([9]; MAD 500 mg BID (n = 8)): 1 (12.5) n (%) | Gastrointestinal disorders (TEAE) ([9]; MAD 500 mg BID (n = 8)): 0 n (%) | General disorders and administration- site conditions (TEAE) ([9]; MAD 500 mg BID (n = 8)): 0 n (%) | Headache (TEAE) ([9]; MAD 500 mg BID (n = 8)): 1 (12.5) n (%) | Infections and infestations (TEAE) ([9]; MAD 500 mg BID (n = 8)): 1 (12.5) n (%) | Musculoskeletal and connective tissue disorders (TEAE) ([9]; MAD 500 mg BID (n = 8)): 2 (25.0) n (%) | Nervous system disorders (TEAE) ([9]; MAD 500 mg BID (n = 8)): 1 (12.5) n (%) | Oropharyngeal pain (TEAE) ([9]; MAD 500 mg BID (n = 8)): 1 (12.5) n (%) | Pruritus (TEAE) ([9]; MAD 500 mg BID (n = 8)): 1 (12.5) n (%) | Respiratory, thoracic, and mediastinal disorders (TEAE) ([9]; MAD 500 mg BID (n = 8)): 2 (25.0) n (%) | Skin and subcutaneous tissue disorders (TEAE) ([9]; MAD 500 mg BID (n = 8)): 1 (12.5) n (%) | At least one TEAE ([9]; MAD 1000 mg BID (n = 8)): 5 (62.5) n (%) | Back pain (TEAE) ([9]; MAD 1000 mg BID (n = 8)): 0 n (%) | Gastrointestinal disorders (TEAE) ([9]; MAD 1000 mg BID (n = 8)): 2 (25.0) n (%) | General disorders and administration- site conditions (TEAE) ([9]; MAD 1000 mg BID (n = 8)): 2 (25.0) n (%) | Headache (TEAE) ([9]; MAD 1000 mg BID (n = 8)): 0 n (%) | Infections and infestations (TEAE) ([9]; MAD 1000 mg BID (n = 8)): 1 (12.5) n (%) | Musculoskeletal and connective tissue disorders (TEAE) ([9]; MAD 1000 mg BID (n = 8)): 0 n (%) | Nervous system disorders (TEAE) ([9]; MAD 1000 mg BID (n = 8)): 2 (25.0) n (%) | Oropharyngeal pain (TEAE) ([9]; MAD 1000 mg BID (n = 8)): 1 (12.5) n (%) | Pruritus (TEAE) ([9]; MAD 1000 mg BID (n = 8)): 1 (12.5) n (%) | Respiratory, thoracic, and mediastinal disorders (TEAE) ([9]; MAD 1000 mg BID (n = 8)): 2 (25.0) n (%) | Skin and subcutaneous tissue disorders (TEAE) ([9]; MAD 1000 mg BID (n = 8)): 1 (12.5) n (%) | discontinuation due to AEs ([9]; MAD, 500 mg BID, transient moderate anxiety and mild dyspnea 2 h after the 5th dose): One subject | tolerability ([9]; MAD, 250, 500, 1000 mg BID): well tolerated | severity of reported AEs ([9]; MAD, 250, 500, 1000 mg BID for 14 days): mild to moderate | relation of reported AEs to study drug ([9]; MAD, all reported AEs): unrelated to the study drug | headache ([9]; MAD, of the 24 subjects who received surotomycin): 2 (8.3%) n (%) | back pain [9, 12]: 2 (8.3%) n (%) | constipation [9, 12]: 2 (8.3%) n (%) | oropharyngeal pain [9, 12]: 2 (8.3%) n (%) | pruritus [9, 12]: 2 (8.3%) n (%) | AUC(0-t) ([10]; 250 mg, 250 mg BID oral, day 1, 0 to last measurable concentration, cohort n = 8): 41.2 ng·h/mL | AUC(0-t) ([10]; 250 mg, 250 mg BID oral, day 14, 0 to last measurable concentration): 274 ng·h/mL | Cmax [10, 13]: 6.8 ng/mL | Cmax ([10]; 250 mg, 250 mg BID oral, day 14, LC/MS/MS): 25.5 ng/mL | Tmax [10, 13]: 9 h | Tmax ([10]; 250 mg, 250 mg BID oral, day 14 morning dose, LC/MS/MS): 4.5 h | AUC(0-t) ([10]; 500 mg, 500 mg BID oral, day 1, 0 to last measurable concentration, cohort n = 8): 49.4 ng·h/mL | AUC(0-t) ([10]; 500 mg, 500 mg BID oral, day 14, 0 to last measurable concentration): 313 ng·h/mL | Cmax ([10]; 500 mg, 500 mg BID oral, day 1, LC/MS/MS, cohort n = 8): 11 ng/mL | Cmax ([10]; 500 mg, 500 mg BID oral, day 14, LC/MS/MS): 37.6 ng/mL | AUC(0-t) ([10]; 1000 mg, 1000 mg BID oral, day 1, 0 to last measurable concentration, cohort n = 8): 118 ng·h/mL | AUC(0-t) ([10]; 1000 mg, 1000 mg BID oral, day 14, 0 to last measurable concentration): 771 ng·h/mL | Cmax [10, 14]: 21 ng/mL | Cmax ([10]; 1000 mg, 1000 mg BID oral, day 14, LC/MS/MS): 93.5 ng/mL | Tmax [10, 14]: 7.5 h | Tmax ([10]; 1000 mg, 1000 mg BID oral, day 14 morning dose, LC/MS/MS): 1.8 h
